Reference: ChEMBL document CHEMBL3045814, “Antifungal activity of Hinokitiol-related compounds on wood-rotting fungi and their insecticidal activities” (2000)
≈ marks a conversion by molar mass, not a printed value. Calls of active or inactive are those of the source. No cut-off for these calls is given here.

Assays:
Assay type in all cases: functional
Trametes versicolor = test: Antifungal activity against Trametes versicolor IFO-4940 assessed as growth inhibition after 7 days by agar dilution method; settings: for MIC: IFO-4940, 168 h
Lenzites betulinus = test: Antifungal activity against Lenzites betulinus IFO-4964 assessed as growth inhibition after 7 days by agar dilution method; settings: for MIC: IFO-4964, 168 h
Tyrophagus putrescentiae [1] = test: Insecticidal activity against Tyrophagus putrescentiae assessed as mortality after 24 hr by clip method
Trametes coccinea = test: Antifungal activity against Pycnoporus coccineus IFO-4924 assessed as growth inhibition after 7 days by agar dilution method; settings: for MIC: IFO-4924, 168 h
Fomitopsis dickinsii = test: Antifungal activity against Daedalea dickinsii IFO-4979 assessed as growth inhibition after 7 days by agar dilution method; settings: for MIC: IFO-4979, 168 h
Coptotermes formosanus [2] = test: Insecticidal activity against Coptotermes formosanus assessed as mortality after 24 to 48 hr
Schizophyllum commune = test: Antifungal activity against Schizophyllum commune IFO-4928 assessed as growth inhibition after 7 days by agar dilution method; settings: for MIC: IFO-4928, 168 h
Tyrophagus putrescentiae [3] = test: Insecticidal activity against Tyrophagus putrescentiae assessed as mortality at 0.01 g/m2 after 24 hr by clip method relative to control
Tyrophagus putrescentiae [4] = test: Insecticidal activity against Tyrophagus putrescentiae assessed as mortality at 1 g/m2 after 24 hr by clip method relative to control
Coptotermes formosanus [5] = test: Insecticidal activity against Coptotermes formosanus assessed as mortality at 0.1 g/m2 after 24 hr relative to control
Coptotermes formosanus [6] = test: Insecticidal activity against Coptotermes formosanus assessed as mortality at 1 g/m2 after 48 hr relative to control
Coptotermes formosanus [7] = test: Insecticidal activity against Coptotermes formosanus assessed as mortality at 0.2 g/m2 after 24 hr relative to control
Coptotermes formosanus [8] = test: Insecticidal activity against Coptotermes formosanus assessed as mortality at 0.02 g/m2 after 48 hr relative to control
Coptotermes formosanus [9] = test: Insecticidal activity against Coptotermes formosanus assessed as mortality at 0.1 g/m2 after 48 hr relative to control
Coptotermes formosanus [10] = test: Insecticidal activity against Coptotermes formosanus assessed as mortality at 0.02 g/m2 after 24 hr relative to control
Tyrophagus putrescentiae [11] = test: Insecticidal activity against Tyrophagus putrescentiae assessed as mortality at 0.1 g/m2 after 24 hr by clip method relative to control
Coptotermes formosanus [12] = test: Insecticidal activity against Coptotermes formosanus assessed as mortality at 0.01 g/m2 after 48 hr relative to control
Coptotermes formosanus [13] = test: Insecticidal activity against Coptotermes formosanus assessed as mortality at 0.05 g/m2 after 24 hr relative to control
Coptotermes formosanus [14] = test: Insecticidal activity against Coptotermes formosanus assessed as mortality at 1 g/m2 after 24 hr relative to control
Tyrophagus putrescentiae [15] = test: Insecticidal activity against Tyrophagus putrescentiae assessed as mortality at 0.2 g/m2 after 24 hr by clip method relative to control
Coptotermes formosanus [16] = test: Insecticidal activity against Coptotermes formosanus assessed as mortality at 0.05 g/m2 after 48 hr relative to control
Tyrophagus putrescentiae [17] = test: Insecticidal activity against Tyrophagus putrescentiae assessed as mortality at 0.02 g/m2 after 24 hr by clip method relative to control
Tyrophagus putrescentiae [18] = test: Insecticidal activity against Tyrophagus putrescentiae assessed as mortality at 0.05 g/m2 after 24 hr by clip method relative to control
Coptotermes formosanus [19] = test: Insecticidal activity against Coptotermes formosanus assessed as mortality at 0.01 g/m2 after 24 hr relative to control
Coptotermes formosanus [20] = test: Insecticidal activity against Coptotermes formosanus assessed as mortality at 0.2 g/m2 after 48 hr relative to control
Tyrophagus putrescentiae [21] = test: Insecticidal activity against Tyrophagus putrescentiae assessed as mortality at 0.5 g/m2 after 24 hr by clip method relative to control
Coptotermes formosanus [22] = test: Insecticidal activity against Coptotermes formosanus assessed as mortality at 0.00005 g/m2 after 48 hr relative to control
Coptotermes formosanus [23] = test: Insecticidal activity against Coptotermes formosanus assessed as mortality at 0.00025 g/m2 after 48 hr relative to control
Coptotermes formosanus [24] = test: Insecticidal activity against Coptotermes formosanus assessed as mortality at 0.00001 g/m2 after 48 hr relative to control
Coptotermes formosanus [25] = test: Insecticidal activity against Coptotermes formosanus assessed as mortality at 0.00005 g/m2 after 24 hr relative to control
Coptotermes formosanus [26] = test: Insecticidal activity against Coptotermes formosanus assessed as mortality at 0.00025 g/m2 after 24 hr relative to control
Coptotermes formosanus [27] = test: Insecticidal activity against Coptotermes formosanus assessed as mortality at 0.00050 g/m2 after 48 hr relative to control
Coptotermes formosanus [28] = test: Insecticidal activity against Coptotermes formosanus assessed as mortality at 0.00010 g/m2 after 48 hr relative to control
Coptotermes formosanus [29] = test: Insecticidal activity against Coptotermes formosanus assessed as mortality at 0.00050 g/m2 after 24 hr relative to control
Coptotermes formosanus [30] = test: Insecticidal activity against Coptotermes formosanus assessed as mortality at 0.00001 g/m2 after 24 hr relative to control
Coptotermes formosanus [31] = test: Insecticidal activity against Coptotermes formosanus assessed as mortality at 0.00010 g/m2 after 24 hr relative to control

SMILES | MIC (Trametes versicolor) [µg/mL] | MIC (Lenzites betulinus) [µg/mL] | MIC (Trametes coccinea) [µg/mL] | MIC (Fomitopsis dickinsii) [µg/mL] | MIC (Schizophyllum commune) [µg/mL] | mortality (Tyrophagus putrescentiae [3]) [%] | mortality (Tyrophagus putrescentiae [4]) [%] | mortality (Coptotermes formosanus [5]) [%] | mortality (Coptotermes formosanus [6]) [%] | mortality (Coptotermes formosanus [7]) [%] | mortality (Coptotermes formosanus [8]) [%] | mortality (Coptotermes formosanus [9]) [%] | mortality (Coptotermes formosanus [10]) [%] | mortality (Tyrophagus putrescentiae [11]) [%] | LC50 (Tyrophagus putrescentiae [1]) [g/m2] | mortality (Tyrophagus putrescentiae [15]) [%] | mortality (Tyrophagus putrescentiae [17]) [%] | mortality (Tyrophagus putrescentiae [18]) [%] | LC50 (Coptotermes formosanus [2]) [g/m2] | mortality (Tyrophagus putrescentiae [21]) [%] | other results
CC(=O)Oc1cc(C(C)C)cccc1=O | – | – | – | – | – | – | – | – | – | – | – | – | – | – | – | – | – | – | – | – | growth inhibition (GI) (Trametes versicolor): inactive; growth inhibition (GI) (Lenzites betulinus): inactive; Activity (Tyrophagus putrescentiae [1]): inactive; growth inhibition (GI) (Trametes coccinea): inactive; growth inhibition (GI) (Fomitopsis dickinsii): inactive; Activity (Coptotermes formosanus [2]): inactive; growth inhibition (GI) (Schizophyllum commune): inactive
C[C@@H]1[C@H](O)[C@@H](C)/C=C/C=C/C=C/C=C/C=C/C=C/C=C/[C@H](O[C@@H]2O[C@H](C)[C@@H](O)[C@H](N)[C@@H]2O)C[C@@H]2O[C@](O)(C[C@@H](O)C[C@@H](O)[C@H](O)CC[C@@H](O)C[C@@H](O)CC(=O)O[C@H]1C)C[C@H](O)[C@H]2C(=O)O [AMPHOTERICIN B] | 0.39 (≈ 0.422 µM) | 0.39 (≈ 0.422 µM) | 0.78 (≈ 0.844 µM) | 0.39 (≈ 0.422 µM) | 0.39 (≈ 0.422 µM) | – | – | – | – | – | – | – | – | – | – | – | – | – | – | – | –
C=C(C)c1cccc(=O)c(O)c1 [BETA-DOLABRIN] | 6.25 (≈ 38.5 µM) | 12.5 (≈ 77.1 µM) | 25 (≈ 154 µM) | 0.2 (≈ 1.23 µM) | 12.5 (≈ 77.1 µM) | 0 | 100 | 40 | 100 | 100 | 0 | 95 | 0 | 90 | 0.02 | 100 | 31 | 91 | 0.05 | 100 | mortality (Coptotermes formosanus [12]): 0%; mortality (Coptotermes formosanus [13]): 0%; mortality (Coptotermes formosanus [14]): 100%; mortality (Coptotermes formosanus [16]): 11%; mortality (Coptotermes formosanus [19]): 0%; mortality (Coptotermes formosanus [20]): 100%
CCOP(=S)(OCC)Oc1nc(Cl)c(Cl)cc1Cl [CHLORPYRIFOS] | – | – | – | – | – | – | – | – | – | – | – | – | – | – | – | – | – | – | 0.00016 | – | mortality (Coptotermes formosanus [22]): 40%; mortality (Coptotermes formosanus [23]): 100%; mortality (Coptotermes formosanus [24]): 0%; mortality (Coptotermes formosanus [25]): 10%; mortality (Coptotermes formosanus [26]): 60%; mortality (Coptotermes formosanus [27]): 100%; mortality (Coptotermes formosanus [28]): 75%; mortality (Coptotermes formosanus [29]): 100%; mortality (Coptotermes formosanus [30]): 0%; mortality (Coptotermes formosanus [31]): 25%
CCN(CC)C(=O)c1cccc(C)c1 [DIETHYLTOLUAMIDE] | – | – | – | – | – | 0 | 67.1 | – | – | – | – | – | – | 0 | 0.79 | 4.5 | 0 | 0 | – | 18.9 | –
CC(C)c1ccc(O)c(=O)cc1 [GAMMA-THUJAPLICIN] | 6.25 (≈ 38.1 µM) | 12.5 (≈ 76.1 µM) | 25 (≈ 152 µM) | 0.2 (≈ 1.22 µM) | 12.5 (≈ 76.1 µM) | 0 | 100 | 20 | 100 | 100 | 11 | 100 | 0 | 84 | 0.02 | 100 | 51 | 66 | 0.05 | 100 | mortality (Coptotermes formosanus [12]): 5%; mortality (Coptotermes formosanus [13]): 10%; mortality (Coptotermes formosanus [14]): 100%; mortality (Coptotermes formosanus [16]): 32%; mortality (Coptotermes formosanus [19]): 0%; mortality (Coptotermes formosanus [20]): 100%
CC(C)c1cccc(=O)c(O)c1 [HINOKITIOL] | 12.5 (≈ 76.1 µM) | 12.5 (≈ 76.1 µM) | 12.5 (≈ 76.1 µM) | 0.2 (≈ 1.22 µM) | 12.5 (≈ 76.1 µM) | 0 | 100 | 50 | 100 | 100 | 20 | 100 | 10 | 11.9 | 0.246 | 33.6 | 0 | 0 | 0.07 | 91.3 | mortality (Coptotermes formosanus [12]): 0%; mortality (Coptotermes formosanus [13]): 40%; mortality (Coptotermes formosanus [14]): 100%; mortality (Coptotermes formosanus [16]): 50%; mortality (Coptotermes formosanus [19]): 0%; mortality (Coptotermes formosanus [20]): 100%
